According to patent publication US20070213359A1 (ACADIA Pharmaceuticals Inc., priority 2005, published 2007):
Like-named read-outs stand apart in the source and are kept apart here.

What was measured:
[1] = biological target: T1, GHSR1a receptor (Homo sapiens, UniProt Q92847); test: 125I-Ghrelin binding assay; conditions: displacement of 125I-ghrelin (0.053 nM), membranes of HEK293 cells transfected with GHSR1a; Cheng-Prussoff; '—' not defined; read-out: Binding pKi (converted)
T1 construct: expressed in transfected cells; host or cells: HEK293 (membranes)
T1 sequence (Q92847 whole entry): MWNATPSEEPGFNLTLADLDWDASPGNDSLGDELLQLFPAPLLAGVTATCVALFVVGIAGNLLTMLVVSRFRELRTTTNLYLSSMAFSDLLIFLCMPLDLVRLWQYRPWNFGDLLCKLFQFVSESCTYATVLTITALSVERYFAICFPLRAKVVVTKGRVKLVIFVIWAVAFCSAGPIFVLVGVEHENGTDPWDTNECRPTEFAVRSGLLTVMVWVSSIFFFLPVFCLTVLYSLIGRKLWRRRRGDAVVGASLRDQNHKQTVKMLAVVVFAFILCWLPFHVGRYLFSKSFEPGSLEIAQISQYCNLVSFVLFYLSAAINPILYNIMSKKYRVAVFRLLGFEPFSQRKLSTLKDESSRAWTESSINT
Method: Plasmid DNA containing the GHSR1a receptor (12.5 ug/dish) in 0.675 ml DMEM was transfected into the cells by mixing with 180 ul PolyFect, 15 min later mixing in 2.25 ml 10% CS/DMEM, and transferring the mixture into the dish. At 16-18 h post transfection, medium was replaced with 25 ml fresh 10% FCS/1% PSG/DMEM to each dish for another 18-20 h. At approximately 48 hours post-transfection, cells were harvested in ice-cold membrane buffer (20 mM HEPES, 6 mM MgCl2, 1 mM EDTA, pH to 7.2) using a cell scraper, and pelleted by centrifugation.
Pelleted cells were added to a nitrogen cavitation chamber and 900 bar of pressure applied for 30 min. The pressure was slowly released the cavitated cells collected in 50 ml falcon tubes. The tubes were centrifuged at 1000 rpm, 4° C. for 10 min, and the supernatant collected. This centrifugation and collection was repeated two more times until the supernatant was free of precipitate (membranes are still in suspension). The supernatant was poured into a 50 ml centrifuge tube and centrifuged at 10.000 rpm, 4° C. for 20 min. The supernatant was discarded and the pellet re-suspended in 750 μl membrane binding buffer using a chilled 1 ml syringe with 25G5/8 needle to re-suspend membranes. The protein concentration was determined using the BioRad Protein Assay Dye Reagent according to the manufacturers instructions. The protein concentration was adjusted to 5 mg/ml and aliquots snap-frozed and stored at −80 C until use.
Membranes were thawed rapidly; diluted with binding buffer (25 mM Hepes+5 mM MgCl2, 1 mM CaCl2, 2.5 mM EDTA and 0.2% BSA) to a protein concentration of 0.8 ug/30 ul and placed on ice. 96-well plates (U-bottom wells) were prepared with serial dilutions (8 doses, 40 ul/w) of the test compounds. Membranes (30 uL/well) were then added, and incubated with test ligands for 30 min at room temperature with shaking. […] Binding was terminated by filtration through GF/B filters (presoaked with 0.1% polyethylenimine) with a Brandel 96-well harvester. The filters were washed with ice-cold binding buffer (150 ml/plate) and allowed to air-dry for 30 min. 50 ul MicroScient-20 cocktail was added to each dried well, the plates were sealed, and counted for 2 min/well using a TopCount scintillation counter (Packard).

[2] = biological target: Ghrelin receptor (Homo sapiens, UniProt Q92847); test: Receptor Selection and Amplification Technology (R-SAT) assay; assay type: cell-based; set-up: expressed in transfected cells; host or cells: NIH3T3; conditions: for IC50: '—' not defined (nd used separately), read-out: RSAT pIC50 (converted); for Emax: read-out: RSAT Eff(%)
Ghrelin receptor, sequence (Q92847 whole entry): as above

[3] = negative logarithm of ligand concentration causing 50% inhibition of constitutive receptor response, transfected NIH3T3 cells
[4] = percent inhibition at saturating ligand, normalized to reference ligand Substance P analog = 100%

Compound	Ki [1]	IC50 [2, 3]	RSAT Eff(%) [2, 4]	IC50 ([2]; […])	Emax [2]	Emax [2, 4]
COc1cccc2c(C(C)=O)cn(CCCN3CCCN(Cc4ccccc4Cl)CC3)c12	10 nM	0.251 nM	128%			
COc1cccc2c(C(=O)c3ccccc3)cn(CCCN3CCCN(Cc4ccccc4Cl)CC3)c12	3.98 nM			0.398 nM	98%	
COc1cccc2c(C(=O)Cc3ccccc3)cn(CCCN3CCCN(Cc4ccc(F)cc4)CC3)c12	7.94 nM			0.398 nM	87%	
COc1cccc2c(C(=O)Cc3ccccc3)cn(CCCN3CCCN(Cc4ccccc4Cl)CC3)c12	6.31 nM			0.501 nM	92%	
CCc1cccc2c(C(C)=O)cn(CCCN3C4CCC3CC(CCc3ccccc3)C4)c12 (stereo not drawn)	126 nM	3.98 nM			103%	
CC(=O)c1cn(CCCN2CCC(Oc3ccc(Cl)cc3)CC2)c2c(Br)cccc12	100 nM	3.98 nM				105%
COc1cccc2c(C(=O)NCc3cccc(Cl)c3)cn(CCCN3C4CCC3CC(Oc3ccccc3Cl)C4)c12 (stereo not drawn)	20 nM	3.98 nM	99%			
CC(=O)c1cn(CCCN2C3CCC2CC(Oc2ccc(Cl)cc2)C3)c2c(C)cccc12 (stereo not drawn)	126 nM	5.01 nM				99%
CC(=O)c1cn(CCCN2CCC(Oc3ccc(F)cc3)CC2)c2c(C)cccc12	200 nM	5.01 nM				72%
CC(=O)c1cn(CCCN2CCCN(Cc3ccccc3Cl)CC2)c2c(Br)cccc12	10 nM	5.01 nM				95%
COc1cccc2c(C(=O)NCc3cccc(C)c3)cn(CCCN3C4CCC3CC(Oc3ccccc3Cl)C4)c12 (stereo not drawn)	20 nM	5.01 nM	121%			
COc1cccc2c(C(=O)c3ccccc3)cn(CCCN3C4CCC3CC(CC(=O)c3ccccc3)C4)c12 (stereo not drawn)	100 nM			5.01 nM	101%	
CC(=O)c1cn(CCCN2CCCN(Cc3ccccc3Cl)CC2)c2c(C#N)cccc12	63.1 nM	6.31 nM				98%
COc1cccc2c(C(=O)c3ccccc3)cn(CCCN3CCC(Oc4ccccc4Cl)CC3)c12	158 nM			6.31 nM	79%	
COc1cccc2c(C(=O)NCC(C)C)cn(CCCN3C4CCC3CC(Oc3ccc(Cl)cc3)C4)c12 (stereo not drawn)	100 nM	6.31 nM	107%			
COc1cccc2c(C(=O)c3ccccc3)cn(CCCN3CCC(Oc4ccc(Cl)cc4)CC3)c12	100 nM			6.31 nM	93%	
COc1cccc2c(C(C)=O)cn(CCCN3CCN(c4ncccc4C(F)(F)F)CC3)c12	1000 nM	6.31 nM				108%
COc1cccc2c(C(=O)c3ccccc3)cn(CCCN3CCN(Oc4cccc(Cl)c4)CC3)c12	7.94 nM			6.31 nM	79%	
COc1cccc2c(C(C)=O)cn(CCCN3CCN(c4c(C)cccc4C)CC3)c12	1000 nM	6.31 nM				107%
COc1cccc2c(C(=O)c3ccccc3)cn(CCCN3C4CCC3CC(Oc3ccc(Cl)cc3)C4)c12 (stereo not drawn)	100 nM			7.94 nM	91%	
CC(=O)c1cn(CCCN2CCC(Oc3cccc(Cl)c3)CC2)c2c(C#N)cccc12	158 nM	7.94 nM				101%

Compound	Ki [1]	IC50 [2, 3]	RSAT Eff(%) [2, 4]	IC50 ([2]; […])	Emax [2]	Emax [2, 4]
CCCCC[C@H]1C[C@H]2CC[C@@H](C1)N2CCCn1cc(C(=O)NCC(C)C)c2cccc(OC)c21	79.4 nM	7.94 nM			135%	
CCCCC1CCN(CCCn2cc(C(=O)NCC(C)C)c3cccc(OC)c32)CC1	200 nM			7.94 nM	93%	
COc1cccc2c(C(C)=O)cn(CCCN3CCN(c4cccc(Cl)c4)CC3)c12	501 nM	7.94 nM				99%
CC(=O)c1cn(CCCN2C3CCC2CC(CCc2ccccc2)C3)c2c(C#N)cccc12 (stereo not drawn)	39.8 nM	7.94 nM			106%	
CC(=O)c1cn(CCCN2C3CCC2CC(CCc2ccccc2)C3)c2c(Br)cccc12 (stereo not drawn)	79.4 nM	7.94 nM				107%
COc1cccc2c(C(=O)NCc3cccc(Cl)c3)cn(CCCN3CCC(Oc4cccc(Cl)c4)CC3)c12	63.1 nM	7.94 nM			100%	
COc1cccc2c(C(=O)NCC(C)C)cn(CCCN3CCC(Oc4ccccc4Cl)CC3)c12	63.1 nM	7.94 nM			100%	
CC(=O)c1cn(CCCN2CCCN(Cc3ccccc3Cl)CC2)c2c(Cl)cccc12	79.4 nM	7.94 nM				92%
COc1cccc2c(C(=O)Cc3ccccc3)cn(CCCN3CCN(CCOc4ccc(Cl)cc4)CC3)c12	3160 nM			7.94 nM	82%	
COc1cccc2c(C(C)=O)cn(CCCN3CCN(c4cccc(Cl)c4Cl)CC3)c12	398 nM	7.94 nM				103%
CCCCC1CCN(CCCn2cc(C(C)=O)c3cccc(C)c32)CC1	316 nM	7.94 nM				78%
COc1cccc2c(C(=O)NCC(C)C)cn(CCCN3C4CCC3CC(Oc3ccccc3Cl)C4)c12 (stereo not drawn)	100 nM	10 nM	116%			
CC(=O)c1cn(CCCN2CCC(c3nc4ccccc4s3)CC2)c2c(Br)cccc12	200 nM	10 nM				81%
COc1cccc2c(C(C)=O)cn(CC(C)CN3CCCN(Cc4ccccc4Cl)CC3)c12 (stereo not drawn)	100 nM	10 nM				123%
COc1cccc2c(C(C)=O)cn(CCCN3C4CC[C@H]3C[C@@H](Oc3ccc(Cl)cc3)C4)c12	200 nM			10 nM	114%	
COc1ccccc1C1CCN(CCCn2cc(C(=O)c3ccccc3)c3cccc(OC)c32)CC1	158 nM			12.6 nM	88%	
COc1cccc2c(C(=O)c3ccccc3)cn(CCCN3C4CCC3CC(Oc3ccc(F)cc3)C4)c12 (stereo not drawn)	158 nM			12.6 nM	106%	
CC(=O)c1c(C)n(CCCN2CCC(Oc3cccc(Cl)c3)CC2)c2c(Br)cccc12	631 nM					35%
CC(=O)c1cn(CCCN2CCCC(Cc3ccccc3Cl)C2)c2c(C#N)cccc12 (stereo not drawn)	794 nM					22%
CC(=O)c1c(C)n(CCCN2C3CCC2CC(Oc2ccc(F)cc2)C3)c2c(Br)cccc12 (stereo not drawn)	1580 nM					1%
